Laboratory results reported in patent US20200016159A1, “N3-CYCLICALLY SUBSTITUTED THIENOURACILS AND USE THEREOF” (Bayer Aktiengesellschaft, priority 2016, published 2020).

Molecular target: T1, human adenosine A2b receptor (Homo sapiens, UniProt P29275)
T1 sequence (P29275 1-332): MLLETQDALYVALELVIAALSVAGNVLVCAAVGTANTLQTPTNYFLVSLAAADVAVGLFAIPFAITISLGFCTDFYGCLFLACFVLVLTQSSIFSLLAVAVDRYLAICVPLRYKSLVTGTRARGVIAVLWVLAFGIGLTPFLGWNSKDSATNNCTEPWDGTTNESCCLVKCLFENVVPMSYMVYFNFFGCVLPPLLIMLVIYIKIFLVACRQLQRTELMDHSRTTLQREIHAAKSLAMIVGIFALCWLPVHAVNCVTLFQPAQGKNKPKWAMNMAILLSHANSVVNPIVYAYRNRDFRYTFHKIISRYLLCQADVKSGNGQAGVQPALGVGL
Assay: Cellular in vitro reporter gene test for A2b receptor activity (antagonism of NECA)
Type: cell-based
Design: expressed in transfected cells; host or cells: CHO-K1 (Chinese hamster ovary) with CRE-luciferase reporter
Settings: recombinant CHO-K1 cells, CRE-luciferase reporter, co-incubation with EC50 concentration of NECA, 3 hours
In short: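 CHO-K1 cells expressing recombinant human A2b receptor plus a CRE-driven firefly luciferase reporter. Compounds co-incubated with NECA at its same-day EC50 concentration; luminescence read 3 hours after NECA addition. IC50 values, sometimes means of several determinations rounded to two significant figures.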

Row | IC50 [nM] | SMILES
1 | 2.8 | Cc1c(CN2CCNC2=O)sc2c1c(=O)n(C1CC1C)c(=O)n2CCCF (single isomer, unassigned) [Example 92, 1-(3-Fluoropropyl)-5-methyl-3-(2-methylcyclopropyl)-6-[(2-oxoimidazolidin-1-yl)methyl]thieno[2,3-d]pyrimidine-2,4(1H,3H)-dione]
2 | 2.7 | Cc1c(CN2CCNC2=O)sc2c1c(=O)n(C1CC1C)c(=O)n2CC1CC(F)(F)C1 (single isomer, unassigned) [Example 253, 1-[(3,3-Difluorocyclobutyl)methyl]-5-methyl-3-(2-methylcyclopropyl)-6-[(2-oxoimidazolidin-1-yl)methyl]thieno[2,3-d]pyrimidine-2,4(1H,3H)-dione]
3 | 20 | Cc1c(CN2CCNC2=O)sc2c1c(=O)n(C1CC1)c(=O)n2C [Example 1, 3-Cyclopropyl-1,5-dimethyl-6-[(2-oxoimidazolidin-1-yl)methyl]thieno[2,3-d]pyrimidine-2,4(1H,3H)-dione]
4 | 53 | Cc1c(Cn2nc[nH]c2=O)sc2c1c(=O)n(C1CC1)c(=O)n2CC1CC1(F)F (single isomer, unassigned; enantiomer 1) [Example 21, 3-Cyclopropyl-1-[(2,2-difluorocyclopropyl)methyl]-5-methyl-6-[(5-oxo-4,5-dihydro-1H-1,2,4-triazol-1-yl)methyl]thieno[2,3-d]pyrimidine-2,4(1H,3H)-dione (enantiomer 1)]
5 | 120 | Cc1c(Cn2nc[nH]c2=O)sc2c1c(=O)n(C1(C)CC1)c(=O)n2CC#N [Example 69, [5-Methyl-3-(1-methylcyclopropyl)-2,4-dioxo-6-[(5-oxo-4,5-dihydro-1H-1,2,4-triazol-1-yl)methyl]-3,4-dihydrothieno[2,3-d]pyrimidin-1(2H)-yl]acetonitrile]
6 | 1.2 | Cc1c(CN2CCNC2=O)sc2c1c(=O)n(C1CC1C)c(=O)n2CC(F)F (single isomer, unassigned) [Example 236, 1-(2,2-Difluoroethyl)-5-methyl-3-(2-methylcyclopropyl)-6-[(2-oxoimidazolidin-1-yl)methyl]thieno[2,3-d]pyrimidine-2,4(1H,3H)-dione]
7 | 1.2 | COC(=O)N=C1NCCN1Cc1sc2c(c1C)c(=O)n(C1CCC1)c(=O)n2CCC(F)(F)F [Example 112, Methyl [1-{[3-cyclobutyl-5-methyl-2,4-dioxo-1-(3,3,3-trifluoropropyl)-1,2,3,4-tetrahydrothieno[2,3-d]pyrimidin-6-yl]methyl}imidazolidin-2-ylidene]carbamate]
8 | 33 | Cc1c(CN2CCNC2=O)sc2c1c(=O)n(C1CC1)c(=O)n2C[C@H]1CCCO1 [Example 38, 3-Cyclopropyl-5-methyl-6-[(2-oxoimidazolidin-1-yl)methyl]-1-[(2R)-tetrahydrofuran-2-ylmethyl]thieno[2,3-d]pyrimidine-2,4(1H,3H)-dione]
9 | 82 | COCCn1c(=O)n(C2CC2C)c(=O)c2c(C)c(CN3CCNC3=O)sc21 (single isomer, unassigned) [Example 260, 1-(2-Methoxyethyl)-5-methyl-3-(2-methylcyclopropyl)-6-[(2-oxoimidazolidin-1-yl)methyl]thieno[2,3-d]pyrimidine-2,4(1H,3H)-dione]
10 | 28 | COCCn1c(=O)n(C2CCCC2)c(=O)c2c(C)c(CN3CCNC3=NC#N)sc21 [Example 190, [1-{[3-Cyclopentyl-1-(2-methoxyethyl)-5-methyl-2,4-dioxo-1,2,3,4-tetrahydrothieno[2,3-d]pyrimidin-6-yl]methyl}imidazolidin-2-ylidene]cyanamide]
11 | 6.9 | Cc1c(CN2CCNC2=O)sc2c1c(=O)n(C1CCCC1)c(=O)n2CCC(F)(F)F [Example 184, 3-Cyclopentyl-5-methyl-6-[(2-oxoimidazolidin-1-yl)methyl]-1-(3,3,3-trifluoropropyl)thieno[2,3-d]pyrimidine-2,4(1H,3H)-dione]
12 | 4 | COCCn1c(=O)n(C2CCC2)c(=O)c2c(C)c(CN3CCNC3=NC#N)sc21 [Example 116, [1-{[3-Cyclobutyl-1-(2-methoxyethyl)-5-methyl-2,4-dioxo-1,2,3,4-tetrahydrothieno[2,3-d]pyrimidin-6-yl]methyl}imidazolidin-2-ylidene]cyanamide]
13 | 14 | COCCn1c(=O)n(C2CC(C)(C)C2)c(=O)c2c(C)c(CN3CCNC3=O)sc21 [Example 169, 3-(3,3-Dimethylcyclobutyl)-1-(2-methoxyethyl)-5-methyl-6-[(2-oxoimidazolidin-1-yl)methyl]thieno[2,3-d]pyrimidine-2,4(1H,3H)-dione]
14 | 35 | Cc1c(CN2CCNC2=O)sc2c1c(=O)n(C1CC1C)c(=O)n2CC1CCOC1 (stereo not shown) [Example 289, 5-Methyl-3-(2-methylcyclopropyl)-6-[(2-oxoimidazolidin-1-yl)methyl]-1-(tetrahydrofuran-3-ylmethyl)thieno[2,3-d]pyrimidine-2,4(1H,3H)-dione]
15 | 190 | Cc1c(Cn2nc[nH]c2=O)sc2c1c(=O)n(C1CC1)c(=O)n2CCCCF [Example 198, 3-Cyclopropyl-1-(4-fluorobutyl)-5-methyl-6-[(5-oxo-4,5-dihydro-H-1,2,4-triazol-1-yl)methyl]thieno[2,3-d]pyrimidine-2,4(1H,3H)-dione]
16 | 100 | Cc1c(CN2CCNC2=O)sc2c1c(=O)n(C1CC1)c(=O)n2CCOC(C)C [Example 33, 3-Cyclopropyl-1-(2-isopropoxyethyl)-5-methyl-6-[(2-oxoimidazolidin-1-yl)methyl]thieno[2,3-d]pyrimidine-2,4(1H,3H)-dione]
17 | 110 | Cc1c(CN2CCNC(=O)C2=O)sc2c1c(=O)n(C1CC1)c(=O)n2CC1CCCO1 (racemic) [Example 45, 3-Cyclopropyl-6-[(2,3-dioxopiperazin-1-yl)methyl]-5-methyl-1-(tetrahydrofuran-2-ylmethyl)thieno[2,3-d]pyrimidine-2,4(1H,3H)-dione]
18 | 5.8 | CCCn1c(=O)n(C2CC2C)c(=O)c2c(C)c(CN3CCNC3=O)sc21 (single isomer, unassigned) [Example 228, 5-Methyl-3-(2-methylcyclopropyl)-6-[(2-oxoimidazolidin-1-yl)methyl]-1-propylthieno[2,3-d]pyrimidine-2,4(1H,3H)-dione]
19 | 13 | COCCn1c(=O)n(C2CC3(CCC3)C2)c(=O)c2c(C)c(CN3CCNC3=NC#N)sc21 [Example 180, [1-{[1-(2-Methoxyethyl)-5-methyl-2,4-dioxo-3-(spiro[3.3]hept-2-yl)-1,2,3,4-tetrahydrothieno[2,3-d]pyrimidin-6-yl]methyl}imidazolidin-2-ylidene]cyanamide]
20 | 81 | Cc1c(Cn2nc[nH]c2=O)sc2c1c(=O)n(C1CC1)c(=O)n2C [Example 2, 3-Cyclopropyl-1,5-dimethyl-6-[(5-oxo-4,5-dihydro-1H-1,2,4-triazol-1-yl)methyl]thieno[2,3-d]pyrimidine-2,4(1H,3H)-dione]
21 | 740 | Cc1c(Cn2nc[nH]c2=O)sc2c1c(=O)n(C1(C)CC1)c(=O)n2CCOC(C)C [Example 80, 1-(2-Isopropoxyethyl)-5-methyl-3-(1-methylcyclopropyl)-6-[(5-oxo-4,5-dihydro-H-1,2,4-triazol-1-yl)methyl]thieno[2,3-d]pyrimidine-2,4(1H,3H)-dione]
22 | 19 | Cc1c(CN2CCNC2=O)sc2c1c(=O)n(C1(C)CC1)c(=O)n2C [Example 52, 1,5-Dimethyl-3-(1-methylcyclopropyl)-6-[(2-oxoimidazolidin-1-yl)methyl]thieno[2,3-d]pyrimidine-2,4(1H,3H)-dione]
23 | 9.3 | Cc1c(CN2CCNC(=O)C2=O)sc2c1c(=O)n(C1(C)CC1)c(=O)n2CCC(F)(F)F [Example 59, 6-[(2,3-Dioxopiperazin-1-yl)methyl]-5-methyl-3-(1-methylcyclopropyl)-1-(3,3,3-trifluoropropyl)thieno[2,3-d]pyrimidine-2,4(1H,3H)-dione]
24 | 49 | Cc1c(Cn2[nH]ccc2=O)sc2c1c(=O)n(C1CC(C)(C)C1)c(=O)n2CCC(F)(F)F [Example 314, 3-(3,3-Dimethylcyclobutyl)-5-methyl-6-[(5-oxo-2,5-dihydro-H-pyrazol-1-yl)methyl]-1-(3,3,3-trifluoropropyl)thieno[2,3-d]pyrimidine-2,4(1H,3H)-dione]
25 | 690 | COCCn1c(=O)n(C2(C(F)(F)F)CC2)c(=O)c2c(C)c(CN3CCNC(=O)C3=O)sc21 [Example 88, 6-[(2,3-Dioxopiperazin-1-yl)methyl]-1-(2-methoxyethyl)-5-methyl-3-[1-(trifluoromethyl)cyclopropyl]thieno[2,3-d]pyrimidine-2,4(1H,3H)-dione]
26 | 34 | CCCCn1c(=O)n(C2CC2)c(=O)c2c(C)c(Cn3nc[nH]c3=O)sc21 [Example 4, 1-Butyl-3-cyclopropyl-5-methyl-6-[(5-oxo-4,5-dihydro-H-1,2,4-triazol-1-yl)methyl]thieno[2,3-d]pyrimidine-2,4(1H,3H)-dione]
27 | 5.3 | Cc1c(CN2CCNC2=O)sc2c1c(=O)n(C1CC1C)c(=O)n2CCCF (racemic) [Example 90, 1-(3-Fluoropropyl)-5-methyl-3-(2-methylcyclopropyl)-6-[(2-oxoimidazolidin-1-yl)methyl]thieno[2,3-d]pyrimidine-2,4(1H,3H)-dione]
28 | 15 | Cc1c(CN2CCNC2=S)sc2c1c(=O)n(C1CC1)c(=O)n2CC1CCCO1 (racemic) [Example 40, 3-Cyclopropyl-5-methyl-1-(tetrahydrofuran-2-ylmethyl)-6-[(2-thioxoimidazolidin-1-yl)methyl]thieno[2,3-d]pyrimidine-2,4(1H,3H)-dione]
